Data reported in publication PMC1976805, “Preclinical pharmacokinetics of benznidazole” (British Journal of Cancer, 1984).
Values joined by “and” are separate entries in the source; they are usually repeats but may differ in a detail not shown here. Identical values can stand only once. Like-named read-outs stand apart in the source and are kept apart here.

Tests used:
[1] = Penetration into mouse liver; assay type: in vivo; conditions: for Kp at 0.5 h / Kp at 3 h / Kp at 6 h / Kp: mouse, ip; for Kp at 0.5 h / Kp at 3 h / Kp at 6 h: liver / whole plasma, read-out: liver/whole plasma ratio; for Kp: liver, read-out: liver/whole plasma ratio, overall mean
From the text: Br. J. Cancer (1984), 50, 291-303 Preclinical pharmacokinetics of benznidazole P. Workman', R.A.S. White2, M.I. Walton', L.N. Owen2* & P.R. Twentyman' 1MRC Clinical Oncology and Radiotherapeutics Unit, MRC Centre, Hills Road, Cambridge CB2 2QH, and 2Department of Clinical Veterinary Medicine, University of Cambridge, Madingley Road, Cambridge CB3 OES, UK. […] We have investigated the detailed pharmacokinetics of benznidazole in mice, dogs and sheep to provide a data base for the estimation of doses required for chemosensitization in man. Pharmacokinetic behaviour was linear except at high doses in mice. Absorption was fairly rapid and bioavailability was complete following both i.p. administration in mice and oral administration in dogs. Elimination t4 values were longer than for MISO, being 90 min in mice, 4-5 h in sheep and 9-11 h in dogs. At doses giving linear kinetics, peak whole plasma concentrations per administered mgkg-1 were 0.75 jigml-1 for the i.p. route in mice and 1.8jugmlP' for the oral route in dogs. Though between 39 and 59% of plasma benznidazole was bound to protein, tissue penetration was generally good. Tissue/whole plasma ratios ranged from 59-99% for transplantable mouse tumours and from 14-70% for spontaneous dog neoplasms. Nervous tissue penetration was similar to that in tumours: brain/whole plasma ratios averaged between 61 and 76% in mice and 42% in dogs, while peripheral nerve/whole plasma ratios in dogs averaged 74%. Mean liver/whole plasma ratios were 42% and 71% in BALB/c and C3H/He mouse strains respectively. Only -5% of the administered dose was excreted unchanged in the urine, indicating the likelihood of extensive metabolism. […] Enhancement of CCNU response is likely to require circulating benznidazole concentrations of 10-30 pgml-1 and we predict that these will be obtained with oral doses of 6-20 mgkg- 1 in man. […] This enhancement, or chemosensitization, is usually greater than that seen in dose-limiting normal tissues, resulting in an improved therapeutic index. Because of the relatively high doses of MISO usually required for chemosensitization in mice (see above refs), and also because of its neurotoxicity in man (Dische et al., 1977), we have been interested in finding an improved chemosensitizer. […] The lipophilic ana- logue benznidazole (N-benzyl-(2-nitroimidazolyl) acetamide, Ro 07-1051; Radanil; Roche), the structure of which is shown in Figure 1, was selected for detailed study because of its ability to *Present address: Animal Health Trust, Small Animals Centre, Lanwades Park, Kennett, Newmarket, Suffolk CB8 7PN, UK. Correspondence: P. Workman. […] These findings have been confirmed independently by Siemann et al. (1983). Although benznidazole is used quite widely in South America to treat patients with the trypanosomal infection Chagas' disease or with mucotaneous Leishmaniasis (Barclay et al., 1978; Cerisola et al., 1978; Coura et al., 1978; Fava et al., 1978), apart from our preliminary studies (White et al., 1982) the only published data on its pharmaco- kinetics are for human plasma concentrations measured by polarography (Raaflub & Ziegler, 1979; Raaflub, 1980). Here we describe the pharmacokinetics of benznidazole in the mouse, sheep and dog, as determined by high-performance liquid chromatography (HPLC). […] The Macmillan Press Ltd., 1984 292 P. WORKMAN et al. particularly on plasma and tumour concentrations, have been used as a basis for the estimation of the benznidazole doses required in a Phase I trial of benznidazole plus CCNU, at present ongoing in our Unit. Materials and methods Animals and tumours Adult inbred male BALB/c mice were obtained from OLAC (Southern) Ltd. (Bicester, UK) and adult inbred C3H/He mice of both sexes from OLAC and our own breeding colony. Mice were housed in plastic cages on sawdust bedding made from soft white woods, and allowed laboratory chow and water ad lib. They were used at 20-35 g body wt.

[2] = Plasma pharmacokinetics in man (literature); assay type: in vivo; conditions: oral doses of 6-20 mg kg-1, extrapolated from dog and literature human data
Aqueous solubility = assay type: physicochemical
[3] = Maximum tolerated dose in mice; conditions: male, mouse, in vivo, ip; BALB/c mice, i.p., highest dose used; read-out: maximum tolerated dose (about)
From the text: Br. J. Cancer (1984), 50, 291-303 Preclinical pharmacokinetics of benznidazole P. Workman', R.A.S. White2, M.I. Walton', L.N. Owen2* & P.R. Twentyman' 1MRC Clinical Oncology and Radiotherapeutics Unit, MRC Centre, Hills Road, Cambridge CB2 2QH, and 2Department of Clinical Veterinary Medicine, University of Cambridge, Madingley Road, Cambridge CB3 OES, UK. […] We have investigated the detailed pharmacokinetics of benznidazole in mice, dogs and sheep to provide a data base for the estimation of doses required for chemosensitization in man. Pharmacokinetic behaviour was linear except at high doses in mice. Absorption was fairly rapid and bioavailability was complete following both i.p. administration in mice and oral administration in dogs. […] Although benznidazole is used quite widely in South America to treat patients with the trypanosomal infection Chagas' disease or with mucotaneous Leishmaniasis (Barclay et al., 1978; Cerisola et al., 1978; Coura et al., 1978; Fava et al., 1978), apart from our preliminary studies (White et al., 1982) the only published data on its pharmaco- kinetics are for human plasma concentrations measured by polarography (Raaflub & Ziegler, 1979; Raaflub, 1980). Here we describe the pharmacokinetics of benznidazole in the mouse, sheep and dog, as determined by high-performance liquid chromatography (HPLC). […]

[4] = cited from earlier work
human plasma = conditions: cited from earlier work
[5] = man, average daily dose 3.5 mg kg-1, literature

liver/whole plasma ratio, overall mean ([1]; C3H/He, 78 mg kg-1 i.p., 0.5-6 h, n=29): 70.6% and 71 + 8% | liver concentration ([1]; C3H/He, 78 mg kg-1 i.p., 0.5 h): 25.2 µg/g | whole plasma concentration ([1]; C3H/He, 78 mg kg-1 i.p., 0.5 h): 33.9 µg/mL | liver concentration ([1]; C3H/He, 78 mg kg-1 i.p., 3.0 h): 17.3 µg/g | whole plasma concentration ([1]; C3H/He, 78 mg kg-1 i.p., 3.0 h): 34.1 µg/mL | liver concentration ([1]; C3H/He, 78 mg kg-1 i.p., 6.0 h): 17.8 µg/g | whole plasma concentration ([1]; C3H/He, 78 mg kg-1 i.p., 6.0 h): 21.1 µg/mL | Kp at 0.5 h ([1]; both sexes, C3H/He, 78 mg kg-1, C3H/He, 78 mg kg-1 i.p., 0.5 h): 0.758 | Kp at 3 h ([1]; both sexes, C3H/He, 78 mg kg-1, C3H/He, 78 mg kg-1 i.p., 3.0 h): 0.533 | Kp at 6 h ([1]; both sexes, C3H/He, 78 mg kg-1, C3H/He, 78 mg kg-1 i.p., 6.0 h): 0.843 | Kp ([1]; both sexes, C3H/He, 78 mg kg-1, C3H/He, 78 mg kg-1 i.p., 0.5-6 h, n=29): 0.71 | Kp at 0.5 h ([1]; male, BALB/c, 78 mg kg-1, BALB/c, 78 mg kg-1 i.p., 0.5 h): 0.466 | Kp at 3 h ([1]; male, BALB/c, 78 mg kg-1, BALB/c, 78 mg kg-1 i.p., 3.0 h): 0.348 | Kp at 6 h ([1]; male, BALB/c, 78 mg kg-1, BALB/c, 78 mg kg-1 i.p., 6.0 h): 0.439 | Kp ([1]; male, BALB/c, 78 mg kg-1, BALB/c, 78 mg kg-1 i.p., 0.5-6 h): 0.42 | peak liver concentration that would be produced ([1]; mice, 13 mg kg-1 i.p.): ~7 µg/g | liver concentration ([1]; mice, 78 mg kg-1 i.p., discussion summary): 21 µg/g | predicted circulating (peak whole plasma) concentrations [2]: 10-30 micrograms ml-1 | aqueous solubility (Aqueous solubility): low aqueous solubility
SMILES: O=C(Cn1ccnc1[N+](=O)[O-])NCc1ccccc1 [benznidazole, N-benzyl-(2-nitroimidazolyl) acetamide]
MTD [3]: ~832 mg/kg | mean t1/2 ([4]; humans, low doses, polarographic analysis, ref Raaflub & Ziegler (1979) and Raaflub (1980)): 12 to 14 h | mean steady state maximum plasma concentration (s.e., n=6) [4, 5]: 12.4 ± 0.7 µg/mL | mean steady state minimum plasma concentration (s.e., n=6) [4, 5]: 8.3 ± 0.6 µg/mL | peak time ([4]; man, low oral doses, ref Raaflub & Ziegler, 1979): 3 to 4 h | mean peak plasma concentration per administered mg kg-1 (s.e., n=7) ([4]; man, oral, low doses (mean 1.73 mg kg-1), ref Raaflub & Ziegler, 1979): 1.48 + 0.06 µg ml-1 | binding to plasma proteins (human plasma; ref Raaflub & Ziegler, 1979): 44% | binding to plasma proteins (human plasma; ref Workman & Brown, 1981): 58%
